In ChEMBL document CHEMBL3217588, “Discovery and activity profiling of thailandepsins A through F, potent histone deacetylase inhibitors, from Burkholderia thailandensis E264” (Medchemcomm, 2012):

Experiments:
[1] = target: Histone deacetylase 4 (Homo sapiens, UniProt P56524); assay: Inhibition of human recombinant HDAC4 after 1 hr by luminescence assay
[2] = target: Histone deacetylase 1 (Homo sapiens, UniProt Q13547); assay: Inhibition of human recombinant HDAC1 after 1 hr by luminescence assay
[3] = target: T1, Protein deacetylase HDAC6 (Homo sapiens, UniProt Q9UBN7); assay: Inhibition of human recombinant HDAC6 after 1 hr by luminescence assay
T1 sequence (Q9UBN7 whole entry): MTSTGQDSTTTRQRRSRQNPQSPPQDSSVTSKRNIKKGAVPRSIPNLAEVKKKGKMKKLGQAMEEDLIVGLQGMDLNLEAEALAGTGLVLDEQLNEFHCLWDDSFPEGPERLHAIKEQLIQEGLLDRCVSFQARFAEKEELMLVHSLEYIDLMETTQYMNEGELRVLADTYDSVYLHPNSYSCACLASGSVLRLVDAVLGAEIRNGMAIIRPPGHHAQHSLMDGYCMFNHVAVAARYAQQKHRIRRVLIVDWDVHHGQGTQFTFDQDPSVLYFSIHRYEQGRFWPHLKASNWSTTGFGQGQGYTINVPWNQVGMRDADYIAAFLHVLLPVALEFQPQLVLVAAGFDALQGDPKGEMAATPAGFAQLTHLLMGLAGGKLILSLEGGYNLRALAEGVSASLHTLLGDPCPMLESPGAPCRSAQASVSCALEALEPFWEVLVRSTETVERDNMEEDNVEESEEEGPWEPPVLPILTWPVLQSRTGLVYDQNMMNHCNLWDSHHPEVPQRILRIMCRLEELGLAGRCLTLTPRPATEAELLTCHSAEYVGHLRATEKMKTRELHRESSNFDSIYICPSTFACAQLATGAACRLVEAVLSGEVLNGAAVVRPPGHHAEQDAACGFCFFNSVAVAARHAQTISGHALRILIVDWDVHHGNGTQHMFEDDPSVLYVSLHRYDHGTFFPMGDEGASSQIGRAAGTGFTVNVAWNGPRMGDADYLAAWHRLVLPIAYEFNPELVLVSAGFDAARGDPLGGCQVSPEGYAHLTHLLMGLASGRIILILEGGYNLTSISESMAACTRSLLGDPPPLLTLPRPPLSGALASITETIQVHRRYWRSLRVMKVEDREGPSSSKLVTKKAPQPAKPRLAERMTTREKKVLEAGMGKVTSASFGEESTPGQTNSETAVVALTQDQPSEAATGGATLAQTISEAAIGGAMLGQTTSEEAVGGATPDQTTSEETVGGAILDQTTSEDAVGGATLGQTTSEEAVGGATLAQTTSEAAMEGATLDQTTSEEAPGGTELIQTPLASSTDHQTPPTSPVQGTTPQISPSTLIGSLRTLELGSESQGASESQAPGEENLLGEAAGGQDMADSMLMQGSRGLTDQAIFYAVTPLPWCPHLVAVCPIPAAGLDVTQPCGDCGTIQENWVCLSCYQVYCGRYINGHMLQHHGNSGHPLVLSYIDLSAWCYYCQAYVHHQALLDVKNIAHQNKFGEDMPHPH

Chain of Histone deacetylase 1 (Q13547 whole entry): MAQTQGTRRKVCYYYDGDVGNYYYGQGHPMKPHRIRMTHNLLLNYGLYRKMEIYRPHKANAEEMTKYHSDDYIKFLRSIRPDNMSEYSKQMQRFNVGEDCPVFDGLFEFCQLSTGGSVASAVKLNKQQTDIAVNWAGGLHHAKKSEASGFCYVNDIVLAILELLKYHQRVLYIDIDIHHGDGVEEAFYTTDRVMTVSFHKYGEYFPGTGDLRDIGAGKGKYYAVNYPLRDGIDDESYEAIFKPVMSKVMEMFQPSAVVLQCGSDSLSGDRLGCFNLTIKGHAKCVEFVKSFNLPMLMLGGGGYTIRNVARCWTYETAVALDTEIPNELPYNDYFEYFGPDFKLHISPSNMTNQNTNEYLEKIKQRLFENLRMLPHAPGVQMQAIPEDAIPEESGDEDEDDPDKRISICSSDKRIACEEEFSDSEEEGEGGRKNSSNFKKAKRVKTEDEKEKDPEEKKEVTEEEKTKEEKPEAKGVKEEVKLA
Chain of Histone deacetylase 4 (P56524 whole entry): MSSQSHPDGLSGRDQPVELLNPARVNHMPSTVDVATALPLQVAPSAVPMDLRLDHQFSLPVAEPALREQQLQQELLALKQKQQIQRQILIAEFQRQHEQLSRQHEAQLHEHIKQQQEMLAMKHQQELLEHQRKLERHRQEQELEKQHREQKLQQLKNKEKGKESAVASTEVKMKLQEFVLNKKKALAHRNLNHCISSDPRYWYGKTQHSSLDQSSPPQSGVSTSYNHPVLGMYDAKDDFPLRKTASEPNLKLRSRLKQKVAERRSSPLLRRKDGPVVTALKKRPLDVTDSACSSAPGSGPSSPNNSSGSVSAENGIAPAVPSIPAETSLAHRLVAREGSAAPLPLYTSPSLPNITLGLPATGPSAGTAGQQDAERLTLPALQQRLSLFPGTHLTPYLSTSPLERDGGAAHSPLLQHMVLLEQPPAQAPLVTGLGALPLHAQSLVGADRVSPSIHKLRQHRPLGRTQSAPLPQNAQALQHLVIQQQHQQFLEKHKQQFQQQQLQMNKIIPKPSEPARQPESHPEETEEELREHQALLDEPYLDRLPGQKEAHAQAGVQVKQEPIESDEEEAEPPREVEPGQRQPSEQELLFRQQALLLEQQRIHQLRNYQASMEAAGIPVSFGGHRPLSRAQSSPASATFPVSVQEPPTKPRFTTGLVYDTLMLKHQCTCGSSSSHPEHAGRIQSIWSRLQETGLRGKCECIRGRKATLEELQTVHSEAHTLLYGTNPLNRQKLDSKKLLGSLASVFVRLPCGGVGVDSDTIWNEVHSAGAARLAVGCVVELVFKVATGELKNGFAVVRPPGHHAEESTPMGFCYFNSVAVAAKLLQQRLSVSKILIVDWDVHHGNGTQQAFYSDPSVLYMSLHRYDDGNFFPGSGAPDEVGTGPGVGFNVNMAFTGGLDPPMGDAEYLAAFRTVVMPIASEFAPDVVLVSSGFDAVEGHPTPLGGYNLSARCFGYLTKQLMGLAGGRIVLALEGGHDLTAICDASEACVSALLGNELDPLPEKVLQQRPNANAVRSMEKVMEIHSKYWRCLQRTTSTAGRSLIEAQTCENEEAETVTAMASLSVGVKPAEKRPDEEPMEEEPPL

Row | Compound | IC50 [1] [µM] | IC50 [2] [µM] | IC50 [3] [µM]
1 | CSCC[C@H]1NC(=O)C[C@H]2/C=C/CCSSC[C@@H](NC1=O)C(=O)N[C@H](C(C)C)[C@@H](O)CC(=O)O2 | 38 | 0.0002 | 0.78
2 | CCCC[C@H]1NC(=O)C[C@H]2/C=C/CCSSC[C@@H](NC1=O)C(=O)N[C@H](C(C)C)[C@@H](O)CC(=O)O2 | 47 | 0.00048 | 0.93
3 | CSCC[C@H]1NC(=O)C[C@H]2/C=C/CCSSC[C@@H](NC1=O)C(=O)N[C@H](CC(C)C)[C@@H](O)CC(=O)O2 | 58.9 | 0.00094 | 1.68
4 | CCCC[C@H]1NC(=O)C[C@H]2/C=C/CCSSC[C@@H](NC1=O)C(=O)N[C@H](CC(C)C)[C@@H](O)CC(=O)O2 | 132 | 0.0026 | 1.92
5 | C/C=C1\NC(=O)[C@H]2CSSCC/C=C/[C@H](CC(=O)N[C@H](C(C)C)C(=O)N2)OC(=O)[C@H](C(C)C)NC1=O [ROMIDEPSIN] | 8.67 |  | 
6 | CC[C@H](C)[C@H]1NC(=O)[C@H]2CSSCC/C=C/[C@H](CC(=O)N[C@H](CCSC)C(=O)N2)OC(=O)C[C@@H]1O [THAILANDEPSIN A] | 37.2 | 0.00028 | 0.83
7 | CCCC[C@H]1NC(=O)C[C@H]2/C=C/CCSSC[C@@H](NC1=O)C(=O)N[C@H]([C@@H](C)CC)[C@@H](O)CC(=O)O2 [THAILANDEPSIN B] | 57.4 | 0.0012 | 1.19
